Test results published in patent publication US20260297127A1, “REVERSIBLE SURFACTANT AND MULTIFUNCTIONAL DRUG DELIVERY SYSTEMS BASED THEREON” (Yissum Research Development Company of the Hebrew …, priority 2023, published 2026).
Peptide text beside a SMILES is read from it.

Assays:
[1] = Zn^2+ ions for PTX; metal ions for the others; cited from earlier work
[2] = Emulsion formation and stability (mixing with non-aqueous phase, manual agitation); type: physicochemical; settings: chloroform-water
Description: We designed the peptide Trp-His-His-Trp (WHHW, SEQ ID NO 1), which contains a metal-binding dihistidine moiety surrounded by two hydrophobic amino acids. When an aqueous solution of the peptide and certain metal ions are mixed with a non-aqueous phase, an emulsion is formed (FIG. 1B). […] Depending on the ratio between the aqueous and non-aqueous phases, o/w or w/o emulsions can be formed (FIG. 1C). The peptide has weak inherent fluorescence, but its presence on the interface of the emulsion droplets was inferred by labeling it with fluorescein isothiocyanate (FITC) (FIG. 1D).
By increasing the pH again, the emulsion can be reassembled. With chloroform as the non-aqueous phase, the emulsion has a critical micelle concentration of ~0.2 mM and it is stable for at least 4 months at room temperature (FIG. 3A). Adding ethylenediaminetetraacetic acid (EDTA) to remove the metal ions visibly disassembled the emulsion after ~24 h (FIG. 3B).
The same peptide derivatives in the presence of Cu^2+ ions, were further mixed with chloroform and manually agitated to form emulsions (FIG. 8).
The emulsions were prepared by mixing a peptide solution with the metal ions to a final concentration of 1 mm each and adding NaOH to obtain pH=10. The desired non-aqueous phase was added to this solution at 50% (v/v) and the two phases were manually agitated to form the emulsions. […]

[3] = Encapsulation efficiency (% EE) in castor oil emulsions and solubility in the oil phase; type: physicochemical; settings: for % EE (encapsulation efficiency) in words: castor oil emulsion
Experimental: The % EE values may be altered to fit different drugs by changing the oil phase or by changing the emulsion preparation parameters such as the oil-water ratio.
The encapsulation efficiency (% EE) values were determined by comparing the amount of the free compound in the aqueous phase with the initial concentration. The compounds were dissolved in castor oil with 10% (v/v) ethanol. […] The % EE values were calculated using the formula: % EE=(Cinitial−C(aq.))/Cinitial×100%, where Cinitial is the concentration of the compound in the emulsion and Caq. is the concentration of the compound in the aqueous phase after the centrifugation. The measurements were performed in triplicates.

[4] = in words; cited from earlier work
[5] = tested on: cervical adenocarcinoma HeLa cells; assay: MTT cytotoxicity assay, 72 h incubation; type: cell-based; settings: Homo sapiens, PTX on its own, dissolved in DMSO, read-out: half maximal inhibitory concentration (IC50)
Experimental: The ability to use these emulsions for drug delivery purposes was assessed using the 3-(4,5-dimethylthiazol-2-yl)-2,5-diphenyltetrazolium bromide (MTT) assay. The assay was conducted on cervical adenocarcinoma HeLa cells with the widely used drug paclitaxel (PTX). […] This poses significant disadvantages due to stability issues of the drug that can precipitate when diluted, causing therapeutic failures and possibly harming the patients. […] One way to overcome these complications is to administer the drug in an emulsion. An additional advantage of the system proposed herein is that the disassembly of the emulsion droplets will release the metal ions of the complex in addition to the PTX. […]
The complete cell-culture medium was prepared by the addition of 10% fetal bovine serum (FBS), 1% L-glutamine, and 1% Penicillin-Streptomycin (all purchased from Sartorius) to Dulbecco's Modified Eagle's Medium (DMEM, Sigma Aldrich). […] Afterwards, cytotoxicity was measured by the previously reported MTT method. […] The medium was removed and replaced with isopropanol (200 μL), and upon complete dissolution of the formazan, the absorbance was measured at 550 nm on a Spark 10 M multimode microplate reader spectrophotometer (Tecan Group Ltd., Mannedorf, Switzerland). […]

[6] = UV-vis titration / Benesi-Hildebrand plot / Job's plot of peptide with Cu^2+ ions; type: binding; settings: read-out: stability constant (converted)
Experimental: FIG. 6. Benesi-Hildebrand plot. The stability constant derived from this plot was 6918.3±0.2 M^−1, similar to the known value for imidazole.
(FIG. 3A). […] A Job's plot was prepared as well with the peptide and Cu^2+ ions (FIG. 7B). In the samples with excess Cu^2+ ions (those above χ=0.5) the absorbance increased without an increase in the complex concentration. This may be because of the formation of Cu(OH)2 precipitates from the excess Cu^2+ ions due to the alkaline pH. To negate this effect, the absorbance values of solutions that contained the concentration of the excess Cu^2+ were subtracted from the original measurements. This yielded good linear fittings that indicate a 1:1 binding ratio.
For the UV-vis titration, a peptide solution (1.5 mm) was titrated with a CuCl2 solution (15 mM). The solutions were left for 5 min and the absorbance was measured using a UV-vis spectrophotometer (Shimadzu, UV-1650PC, Kyoto, Japan). For the Job's plot assay, peptide solutions with different mole fractions of Cu^2+ ions (up to 1 mm) were prepared at pH=9 and their absorbance values were measured.

[7] = Self-assembly of the peptide observed experimentally; type: physicochemical
[8] = histidine residues; cited from earlier work

CCN(CC)C(=S)SSC(=S)N(CC)CC [Disulfiram]
anti-tumor efficacy in presence of metal ions [1]: promoted

N[C@@H](Cc1ccccc1)C(=O)N[C@@H](Cc1c[nH]cn1)C(=O)N[C@@H](Cc1c[nH]cn1)C(=O)N[C@@H](Cc1ccccc1)C(=O)O [FHHF, Phe-His-His-Phe] (H-FHHF-OH)
emulsion stability compared with WHHW ([2]; 1 mM peptide and 1 mM Cu^2+): less stable

O=C1OC2(c3ccc(O)cc3Oc3cc(O)ccc32)c2ccc(N=C=S)cc21 [FITC, fluorescein isothiocyanate]
solubility in castor oil [3]: low solubility
% EE (encapsulation efficiency) in words [3]: lower
Solubility in water [4]: Insoluble

CCN(CC)c1ccc2nc3c4ccccc4c(=O)cc-3oc2c1 [Nile red]
Solubility in water [4]: Insoluble

Cc1ccc(C)c(N=Nc2cc(C)c(N=Nc3c(O)ccc4ccccc34)cc2C)c1 [Oil red O]
solubility in castor oil [3]: low solubility
% EE (encapsulation efficiency) in words [3]: lower
Solubility in water [4]: Insoluble

CC(=O)O[C@H]1C(=O)[C@@]2(C)[C@H]([C@H](OC(=O)c3ccccc3)[C@]3(O)C[C@H](OC(=O)[C@H](O)[C@@H](NC(=O)c4ccccc4)c4ccccc4)C(C)=C1C3(C)C)[C@]1(OC(C)=O)CO[C@@H]1C[C@@H]2O [Paclitaxel]
IC50 [5]: 0.014 ± 0.005 µM
anti-tumor efficacy in presence of metal ions [1]: enhanced
Solubility in water [4]: Insoluble

N[C@@H](Cc1c[nH]c2ccccc12)C(=O)N[C@@H](Cc1c[nH]cn1)C(=O)N[C@@H](Cc1c[nH]cn1)C(=O)N[C@@H](Cc1c[nH]c2ccccc12)C(=O)O [WHHW, Trp-His-His-Trp] (H-WHHW-OH)
formation of emulsions with Cu^2+ ions ([2]; 1 mM peptide derivative and 1 mM Cu^2+): formed emulsions
Kd [6]: 145 µM
self-assembled structure with Cu^2+ ions ([7]; 5 mM peptide, 5 mM Cu^2+): spherical aggregates alongside the fibrous structures
self-assembled structure ([7]; 10 mM, water, 24 h): fibrous structures

COc1cc(/C=C/C(=O)CC(=O)/C=C/c2ccc(O)c(OC)c2)ccc1O [curcumin]
anti-tumor efficacy in presence of metal ions [1]: promoted

c1c[nH]cn1 [imidazole]
pKa of the imidazole's amine [8]: ~ 6
